Source: ChEMBL document CHEMBL1909046, “DrugMatrix in vitro pharmacology data”

Tests used:
[1] = biological target: T1, Adenosine receptor A1 (Homo sapiens, UniProt P30542); assay type: cell membranes, Membrane; settings: cho;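 note: radioligand binding assay at the adenosine A1 receptor, with DPCPX serving as the labelled ligand; in other assays of this panel Not Active means under 50% inhibition at 10 µM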
T1 sequence (P30542 whole entry): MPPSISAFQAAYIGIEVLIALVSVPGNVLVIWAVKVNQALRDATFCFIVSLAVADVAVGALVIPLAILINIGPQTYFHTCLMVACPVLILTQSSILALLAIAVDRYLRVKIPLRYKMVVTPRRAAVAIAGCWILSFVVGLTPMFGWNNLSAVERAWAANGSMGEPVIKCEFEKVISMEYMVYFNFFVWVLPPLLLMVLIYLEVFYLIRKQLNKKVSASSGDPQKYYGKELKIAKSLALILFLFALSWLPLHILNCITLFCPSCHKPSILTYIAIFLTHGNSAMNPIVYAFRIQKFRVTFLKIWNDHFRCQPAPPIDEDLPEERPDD

[2] = biological target: Substance-P receptor (Homo sapiens, UniProt P25103); assay type: cell membranes, Membrane; settings: cho; note: in other assays of this panel Not Active means under 50% inhibition at 10 µM
Sequence of Substance-P receptor (P25103 whole entry): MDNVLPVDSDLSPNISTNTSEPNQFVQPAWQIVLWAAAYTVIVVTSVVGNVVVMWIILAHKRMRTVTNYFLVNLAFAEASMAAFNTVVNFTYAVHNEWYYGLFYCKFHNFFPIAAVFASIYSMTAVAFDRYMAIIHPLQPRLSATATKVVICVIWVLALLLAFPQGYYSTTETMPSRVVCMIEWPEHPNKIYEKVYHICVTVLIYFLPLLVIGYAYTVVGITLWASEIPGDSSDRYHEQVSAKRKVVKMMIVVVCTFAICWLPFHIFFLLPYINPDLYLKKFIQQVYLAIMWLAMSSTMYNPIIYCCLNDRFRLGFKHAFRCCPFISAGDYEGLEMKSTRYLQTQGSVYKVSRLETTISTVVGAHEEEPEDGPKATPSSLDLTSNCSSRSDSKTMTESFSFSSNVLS

[3] = biological target: Protein phosphatase 3 catalytic subunit alpha (Homo sapiens, UniProt Q08209); design: species or system Escherichia coli;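 note: inhibition of calcineurin (PP2B) enzyme activity, measured with DiFMUP as the substrate; in other assays of this panel Not Active means under 50% inhibition at 10 µM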
[4] = biological target: T2, Cathepsin G (Homo sapiens, UniProt P08311); assay type: tissue-based; settings: neutrophil;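 note: inhibition of Cathepsin G enzyme activity, tested on an AMC-conjugated peptide substrate; in other assays of this panel Not Active means under 50% inhibition at 10 µM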
T2 sequence (P08311 whole entry): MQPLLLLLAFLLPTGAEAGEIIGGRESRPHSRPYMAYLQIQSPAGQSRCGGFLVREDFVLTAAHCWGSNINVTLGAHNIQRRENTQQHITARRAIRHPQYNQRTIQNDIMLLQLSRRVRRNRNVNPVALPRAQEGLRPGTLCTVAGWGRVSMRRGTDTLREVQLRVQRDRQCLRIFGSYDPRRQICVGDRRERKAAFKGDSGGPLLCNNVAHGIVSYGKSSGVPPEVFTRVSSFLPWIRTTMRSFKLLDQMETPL

[5] = DRUGMATRIX: Phosphodiesterase PDE4 enzyme inhibition (substrate: [3H]cAMP + cAMP); settings: u-937; Not Active = under 50% inhibition at 10 µM
[6] = biological target: T3, Thromboxane-A synthase (Homo sapiens, UniProt P24557); assay: biochemical; assay type: tissue-based, Platelet; settings: platelet
T3 sequence (P24557 whole entry): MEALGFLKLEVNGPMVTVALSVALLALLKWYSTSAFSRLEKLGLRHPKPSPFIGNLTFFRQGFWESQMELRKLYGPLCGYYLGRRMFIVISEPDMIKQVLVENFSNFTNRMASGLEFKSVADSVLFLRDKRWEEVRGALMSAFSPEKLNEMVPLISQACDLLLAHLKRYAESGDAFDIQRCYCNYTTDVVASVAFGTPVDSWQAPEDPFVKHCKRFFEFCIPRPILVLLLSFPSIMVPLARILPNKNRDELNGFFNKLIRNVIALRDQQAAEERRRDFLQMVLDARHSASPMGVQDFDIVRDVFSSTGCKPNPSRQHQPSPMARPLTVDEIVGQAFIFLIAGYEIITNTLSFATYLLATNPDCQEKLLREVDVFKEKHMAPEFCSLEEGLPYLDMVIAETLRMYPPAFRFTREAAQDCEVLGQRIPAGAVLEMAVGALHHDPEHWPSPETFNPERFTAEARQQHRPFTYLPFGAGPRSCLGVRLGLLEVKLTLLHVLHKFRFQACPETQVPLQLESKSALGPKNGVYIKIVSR

[7] = biological target: Cytochrome P450 2E1 (Homo sapiens, UniProt P05181); settings: bti-tn-5b1-4; note: in other assays of this panel Not Active means under 50% inhibition at 10 µM
Sequence of Cytochrome P450 2E1 (P05181 whole entry): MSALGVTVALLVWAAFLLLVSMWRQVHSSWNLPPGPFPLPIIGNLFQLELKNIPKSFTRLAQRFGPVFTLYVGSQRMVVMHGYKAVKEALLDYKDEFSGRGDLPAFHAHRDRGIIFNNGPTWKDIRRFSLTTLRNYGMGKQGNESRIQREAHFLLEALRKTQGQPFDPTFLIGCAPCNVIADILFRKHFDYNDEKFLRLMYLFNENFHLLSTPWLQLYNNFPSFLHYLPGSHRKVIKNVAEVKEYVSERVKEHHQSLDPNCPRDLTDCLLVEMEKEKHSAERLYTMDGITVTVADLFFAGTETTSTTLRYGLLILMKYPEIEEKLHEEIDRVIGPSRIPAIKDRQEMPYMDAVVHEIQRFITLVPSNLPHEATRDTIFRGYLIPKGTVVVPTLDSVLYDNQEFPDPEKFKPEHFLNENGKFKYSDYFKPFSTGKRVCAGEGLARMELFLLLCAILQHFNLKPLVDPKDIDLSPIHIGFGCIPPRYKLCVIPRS

[8] = biological target: T4, Alpha-1A adrenergic receptor (Rattus norvegicus, UniProt P43140); assay: DRUGMATRIX: Alpha-1A adrenergic receptor radioligand binding (ligand: prazosin); assay type: cell membranes, Wistar, Submaxillary gland, Membrane; settings: Not Active = under 50% inhibition at 10 µM
T4 sequence (P43140 whole entry): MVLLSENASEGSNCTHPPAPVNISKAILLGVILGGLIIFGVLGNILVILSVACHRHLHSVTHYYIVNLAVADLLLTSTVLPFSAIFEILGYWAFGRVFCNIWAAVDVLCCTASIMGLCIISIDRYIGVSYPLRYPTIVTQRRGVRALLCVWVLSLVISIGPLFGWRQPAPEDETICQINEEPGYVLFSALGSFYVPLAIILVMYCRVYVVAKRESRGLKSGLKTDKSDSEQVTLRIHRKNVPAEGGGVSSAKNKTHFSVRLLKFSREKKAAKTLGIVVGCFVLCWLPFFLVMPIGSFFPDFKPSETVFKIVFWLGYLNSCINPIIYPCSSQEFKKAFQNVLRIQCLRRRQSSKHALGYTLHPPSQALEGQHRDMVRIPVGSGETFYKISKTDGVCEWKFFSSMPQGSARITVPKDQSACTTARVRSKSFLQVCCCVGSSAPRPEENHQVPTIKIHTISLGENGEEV

[9] = DRUGMATRIX: Potassium Channel [KATP] radioligand binding (ligand: [3H] Glyburide); assay type: cell membranes, Membrane; settings: hit-t15; Not Active = under 50% inhibition at 10 µM

COP(=O)(OC)OC=C(Cl)Cl [DICHLORVOS]
Not Active: IC50 [1] | IC50 [2] | IC50 [3] | IC50 [4] | IC50 [5] | Ki [5] | IC50 [6] | IC50 [7] | Ki [7] | IC50 [8] | IC50 [9] | Ki [9]

O=C(O)Cc1ccccc1Nc1c(Cl)cccc1Cl [DICLOFENAC]
Not Active: IC50 [1] | IC50 [2] | IC50 [3] | IC50 [4] | IC50 [5] | Ki [5] | IC50 [6] | IC50 [7] | Ki [7] | IC50 [8] | IC50 [9] | Ki [9]

C[C@H]1O[C@@H](O[C@H]2[C@@H](O)C[C@H](O[C@H]3[C@@H](O)C[C@H](O[C@H]4CC[C@@]5(C)[C@H](CC[C@@H]6[C@@H]5CC[C@]5(C)[C@@H](C7=CC(=O)OC7)CC[C@]65O)C4)O[C@@H]3C)O[C@@H]2C)C[C@H](O)[C@@H]1O [DIGITOXIN]
Not Active: IC50 [1] | IC50 [2] | IC50 [3] | IC50 [4] | IC50 [5] | Ki [5] | IC50 [6] | IC50 [7] | Ki [7] | IC50 [8] | IC50 [9] | Ki [9]

CCN1CC(CCN2CCOCC2)C(c2ccccc2)(c2ccccc2)C1=O (stereo not drawn) [DOXAPRAM]
Not Active: IC50 [1] | IC50 [2] | IC50 [3] | IC50 [4] | IC50 [5] | Ki [5] | IC50 [6] | IC50 [7] | Ki [7] | IC50 [8] | IC50 [9] | Ki [9]

Cn1c(=O)c2c(ncn2CC2OCCO2)n(C)c1=O [DOXOFYLLINE]
Not Active: IC50 [1] | IC50 [2] | IC50 [3] | IC50 [4] | IC50 [5] | Ki [5] | IC50 [6] | IC50 [7] | Ki [7] | IC50 [8] | IC50 [9] | Ki [9]

COc1cccc2c1C(=O)c1c(O)c3c(c(O)c1C2=O)C[C@@](O)(C(=O)CO)C[C@@H]3O[C@H]1C[C@H](N)[C@H](O)[C@H](C)O1 [DOXORUBICIN]
Not Active: IC50 [1] | IC50 [2] | IC50 [3] | IC50 [4] | IC50 [5] | Ki [5] | IC50 [6] | IC50 [7] | Ki [7] | IC50 [8] | IC50 [9] | Ki [9]

COc1cccc2c1C(=O)c1c(O)c3c(c(O)c1C2=O)C[C@@](O)(C(=O)CO)C[C@@H]3O[C@H]1C[C@H](N)[C@@H](O)[C@H](C)O1 [EPIRUBICIN]
Not Active: IC50 [1] | IC50 [2] | IC50 [3] | IC50 [4] | IC50 [5] | Ki [5] | IC50 [6] | IC50 [7] | Ki [7] | IC50 [8] | IC50 [9] | Ki [9]

C[C@]12CC[C@@H]3c4ccc(OC(=O)c5ccccc5)cc4CC[C@H]3[C@@H]1CC[C@@H]2O [ESTRADIOL BENZOATE]
Not Active: IC50 [1] | IC50 [2] | IC50 [3] | IC50 [4] | IC50 [5] | Ki [5] | IC50 [6] | IC50 [7] | Ki [7] | IC50 [8] | IC50 [9] | Ki [9]

C[C@]12CC[C@@H]3c4ccc(O)cc4CC[C@H]3[C@@H]1CC[C@@H]2O [ESTRADIOL]
Not Active: IC50 [1] | IC50 [2] | IC50 [3] | IC50 [4] | IC50 [5] | Ki [5] | IC50 [6] | IC50 [7] | Ki [7] | IC50 [8] | IC50 [9] | Ki [9]
